# pEC50: −log10 of the molar value.
# Biological target: APJ receptor (Homo sapiens (Human), UniProt P35414)
# Assay: [35S]GTPγS binding assay on membranes from CHO cells stably expressing human APJ receptor
# Assay type: biochemical
# Conditions: membranes of CHO cells stably expressing human APJ receptor, means of several independent experiments, read-out: Activity hAPJ SPA EC50 IP
# Procedure: The human APJ receptor was cloned by polymerase chain reaction and the gene encoding the receptor was subcloned in pFLAG-CMV™-3 expression vector (Sigma, Saint Louis, Mo. USA) in-house at Amgen. A GTPγS binding assay was performed on membranes prepared from CHO cells stably expressing human APJ receptor. The optimum experimental conditions for the concentrations of GDP, MgCl2, and NaCl in the assay buffer were initially determined. The assay was performed in assay buffer [20 mM HEPES, pH 7.5, 5 mM MgCl2, and 0.1% (w/v) BSA with 200 mM NaCl, 3 μM GDP] and membranes expressing human APJ receptor/well along with WGA PS beads. The reaction was initiated by addition of 0.2 nM [^35S]GTPγS (Perkin Elmer Life and Analytical Sciences, Waltham USA) in the absence or presence of various ligands and incubated at RT for 90 min. Nonspecific binding was determined in the presence of 100 μM GTPγS and was always less than 0.2% of total binding. All the results presented are means of several independent experiments and analyzed by non-linear regression methods using commercially available program Prism (GraphPad, San Diego, Calif.) to obtain EC50 detailed in Table 26.
# Sequence of APJ receptor (P35414 whole entry): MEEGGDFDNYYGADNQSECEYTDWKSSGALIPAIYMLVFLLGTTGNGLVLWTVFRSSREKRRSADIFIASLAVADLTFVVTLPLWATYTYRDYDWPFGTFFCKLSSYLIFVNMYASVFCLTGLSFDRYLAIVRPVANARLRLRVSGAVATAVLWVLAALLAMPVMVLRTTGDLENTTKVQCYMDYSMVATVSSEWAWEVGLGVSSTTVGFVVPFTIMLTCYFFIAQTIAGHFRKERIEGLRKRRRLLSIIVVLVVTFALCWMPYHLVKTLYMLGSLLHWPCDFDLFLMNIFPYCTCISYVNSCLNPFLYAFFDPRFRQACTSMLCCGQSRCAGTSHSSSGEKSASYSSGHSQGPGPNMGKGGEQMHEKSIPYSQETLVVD
row,Compound,pEC50
1,"COc1cccc(OC)c1-n1c(NS(=O)(=O)[C@H]2CCCN(S(=O)(=O)C(C)C)C2)nnc1-c1ccco1 (single isomer, unassigned) [Example 339.0, (S)—N-(4-(2,6-Dimethoxyphenyl)-5-(furan-2-yl)-4H-1,2,4-triazol-3-yl)-1-(isopropylsulfonyl)piperidine-3-sulfonamide or (R)—N-(4-(2,6-dimethoxyphenyl)-5-(furan-2-yl)-4H-1,2,4-triazol-3-yl)-1-(isopropylsulfonyl)piperidine-3-sulfonamide]",7.21
2,"Cc1ccc(-c2nnc(NS(=O)(=O)[C@@H](C)Cc3ncc(F)cn3)n2C2CCOCC2)o1 (racemic) [Example 317.0, (2S)-1-(5-Fluoro-2-pyrimidinyl)-N-(5-(5-methyl-2-furanyl)-4-(tetrahydro-2H-pyran-4-yl)-4H-1,2,4-triazol-3-yl)-2-propanesulfonamide and (2R)-1-(5-fluoro-2-pyrimidinyl)-N-(5-(5-methyl-2-furanyl)-4-(tetrahydro-2H-pyran-4-yl)-4H-1,2,4-triazol-3-yl)-2-propanesulfonamide]",6.51
3,"(2R)-1-(3-cyano-5-fluoro-2-pyridinyl)-N-(4-(2,6-dimethoxyphenyl)-5-(2-furanyl)-4H-1,2,4-triazol-3-yl)-2-propanesulfonamide or (2S)-1-(3-cyano-5-fluoro-2-pyridinyl)-N-(4-(2,6-dimethoxyphenyl)-5-(2-furanyl)-4H-1,2,4-triazol-3-yl)-2-propanesulfonamide [Example 29.0]",9.09
4,"COc1cccc(OC)c1-n1c(NS(=O)(=O)[C@H](C)[C@@H](O)c2coc(C)n2)nnc1-c1ccc(C)o1 (racemic) [Example 284.0, (1R,2S)—N-(4-(2,6-Dimethoxyphenyl)-5-(5-methyl-2-furanyl)-4H-1,2,4-triazol-3-yl)-1-hydroxy-1-(2-methyl-1,3-oxazol-4-yl)-2-propanesulfonamide and (1S,2R)—N-(4-(2,6-dimethoxyphenyl)-5-(5-methyl-2-furanyl)-4H-1,2,4-triazol-3-yl)-1-hydroxy-1-(2-methyl-1,3-oxazol-4-yl)-2-propanesulfonamide]",8.80
5,"COc1cccc(OC)c1-n1c(NS(=O)(=O)[C@@H](C)[C@@H](O)c2coc(C)n2)nnc1-c1ccc(C)o1 (single isomer, unassigned) [Example 55.0, (1S,2S)—N-(4-(2,6-dimethoxyphenyl)-5-(5-methyl-2-furanyl)-4H-1,2,4-triazol-3-yl)-1-hydroxy-1-(2-methyl-1,3-oxazol-4-yl)-2-propanesulfonamide or (1R,2R)—N-(4-(2,6-dimethoxyphenyl)-5-(5-methyl-2-furanyl)-4H-1,2,4-triazol-3-yl)-1-hydroxy-1-(2-methyl-1,3-oxazol-4-yl)-2-propanesulfonamide]",7.55
6,"COc1cccc(OC)c1-n1c(NS(=O)(=O)CCN2Cc3ccccc3C2=O)nnc1-c1ccco1 [Example 2.0, N-(4-(2,6-Dimethoxyphenyl)-5-(2-furanyl)-4H-1,2,4-triazol-3-yl)-2-(1-oxo-1,3-dihydro-2H-isoindol-2-yl)ethanesulfonamide]",4.89
7,"COC[C@H]1CCCC(=O)N1C[C@@H](C)S(=O)(=O)Nc1nnc(-c2ccc(C)o2)n1-c1c(OC)cccc1OC (single isomer, unassigned) [Example 150.0]",9.66
8,"COc1cccc(OC)c1-n1c(NS(=O)(=O)[C@@H](C)[C@H](O)c2cn(C)cn2)nnc1-c1ccc(C)o1.COc1cccc(OC)c1-n1c(NS(=O)(=O)[C@H](C)[C@@H](O)c2cn(C)cn2)nnc1-c1ccc(C)o1 (mixture of isomers) [Example 301.0, (1R,2S)—N-(4-(2,6-Dimethoxyphenyl)-5-(5-methyl-2-furanyl)-4H-1,2,4-triazol-3-yl)-1-hydroxy-1-(1-methyl-1H-imidazol-4-yl)-2-propanesulfonamide and (1S,2R)—N-(4-(2,6-dimethoxyphenyl)-5-(5-methyl-2-furanyl)-4H-1,2,4-triazol-3-yl)-1-hydroxy-1-(1-methyl-1H-imidazol-4-yl)-2-propanesulfonamide]",7.89
9,"COc1cccc(OC)c1-n1c(NS(=O)(=O)[C@H](C)Cc2cnc(C)cn2)nnc1-c1ccc(C)o1 (single isomer, unassigned) [Example 24.0, (2R)—N-(4-(2,6-dimethoxyphenyl)-5-(5-methyl-2-furanyl)-4H-1,2,4-triazol-3-yl)-1-(5-methyl-2-pyrazinyl)-2-propanesulfonamide or (2S)—N-(4-(2,6-dimethoxyphenyl)-5-(5-methyl-2-furanyl)-4H-1,2,4-triazol-3-yl)-1-(5-methyl-2-pyrazinyl)-2-propanesulfonamide]",9.44
10,"COc1cccc(OC)c1-n1c(NS(=O)(=O)[C@@H]2CCCN(C(=O)N(C)C)C2)nnc1-c1ccco1 (single isomer, unassigned) [Example 340.0, (S)-3-(N-(4-(2,6-Dimethoxyphenyl)-5-(furan-2-yl)-4H-1,2,4-triazol-3-yl)sulfamoyl)-N,N-dimethylpiperidine-1-carboxamide or (R)-3-(N-(4-(2,6-dimethoxyphenyl)-5-(furan-2-yl)-4H-1,2,4-triazol-3-yl)sulfamoyl)-N,N-dimethylpiperidine-1-carboxamide]",7.12
11,"COc1cccc(OC)c1-n1c(NS(=O)(=O)[C@H]2CCCN(c3ncc(F)cn3)C2)nnc1-c1ccco1 [Example 206.0, (3S)—N-(4-(2,6-Dimethoxyphenyl)-5-(2-furanyl)-4H-1,2,4-triazol-3-yl)-1-(5-fluoro-2-pyrimidinyl)-3-piperidinesulfonamide]",8.32
12,"COc1cccc(OC)c1-n1c(NS(=O)(=O)[C@H](C)[C@@H](O)c2ncc(F)cn2)nnc1-c1ccc(C)o1 (single isomer, unassigned) [Example 93.0, (1R,2S)—N-(4-(2,6-Dimethoxyphenyl)-5-(5-methyl-2-furanyl)-4H-1,2,4-triazol-3-yl)-1-(5-fluoro-2-pyrimidinyl)-1-hydroxy-2-propanesulfonamide or (1S,2R)—N-(4-(2,6-dimethoxyphenyl)-5-(5-methyl-2-furanyl)-4H-1,2,4-triazol-3-yl)-1-(5-fluoro-2-pyrimidinyl)-1-hydroxy-2-propanesulfonamide]",9.85
13,"CC[C@H](Cc1ncc(F)cn1)S(=O)(=O)Nc1nnc(-c2ccc(C)o2)n1-c1c(OC)cccc1OC (single isomer, unassigned) [Example 134.0, (R)—N-(4-(2,6-dimethoxyphenyl)-5-(5-methylfuran-2-yl)-4H-1,2,4-triazol-3-yl)-1-(5-fluoropyrimidin-2-yl)butane-2-sulfonamide or (S)—N-(4-(2,6-dimethoxyphenyl)-5-(5-methylfuran-2-yl)-4H-1,2,4-triazol-3-yl)-1-(5-fluoropyrimidin-2-yl)butane-2-sulfonamide]",8.00
14,"COc1cccc(OC)c1-n1c(NS(=O)(=O)[C@@H](C)[C@H](O)c2ncc(C#N)cc2F)nnc1-c1ccc(C)o1 (single isomer, unassigned) [Example 68.0]",9.43
15,"COc1cccc(OC)c1-n1c(NS(=O)(=O)C[C@@](C)(O)c2ncc(F)cn2)nnc1-c1ccc(C)o1 (single isomer, unassigned) [Example 249.0]",8.60
16,"COCC[C@@H](Cc1ncc(C)cn1)S(=O)(=O)Nc1nnc(-c2ccc(C)o2)n1-c1c(OC)cccc1OC (single isomer, unassigned) [Example 71.0, (2R)—N-(4-(2,6-Dimethoxyphenyl)-5-(5-methyl-2-furanyl)-4H-1,2,4-triazol-3-yl)-4-methoxy-1-(5-methyl-2-pyrimidinyl)-2-butanesulfonamide or (2S)—N-(4-(2,6-dimethoxyphenyl)-5-(5-methyl-2-furanyl)-4H-1,2,4-triazol-3-yl)-4-methoxy-1-(5-methyl-2-pyrimidinyl)-2-butanesulfonamide]",9.33
17,"COC[C@H]1CCCC(=O)N1C[C@@H](C)S(=O)(=O)Nc1nnc(-c2ccc(C)o2)n1-c1c(OC)cccc1OC (single isomer, unassigned) [Example 185.0]",7.48
18,"C[C@@H](Cc1ncc(F)cn1)S(=O)(=O)Nc1nnc(-c2ccco2)n1C1CCCCC1.C[C@H](Cc1ncc(F)cn1)S(=O)(=O)Nc1nnc(-c2ccco2)n1C1CCCCC1 (mixture of isomers) [Example 313.0, (2R)—N-(4-Cyclohexyl-5-(2-furanyl)-4H-1,2,4-triazol-3-yl)-1-(5-fluoro-2-pyrimidinyl)-2-propanesulfonamide and (2S)—N-(4-cyclohexyl-5-(2-furanyl)-4H-1,2,4-triazol-3-yl)-1-(5-fluoro-2-pyrimidinyl)-2-propanesulfonamide]",6.64
19,COCC[C@@H]([C@H](C)c1ncc(F)cn1)S(=O)(=O)Nc1nnc(-c2ccc(C)o2)n1-c1c(OC)cccc1OC (racemic) [Example 74.0],9.27
20,"COc1cccc(OC)c1-n1c(NS(=O)(=O)[C@H]2CON(C)[C@@H]2c2ncc(F)cn2)nnc1-c1ccco1 (single isomer, unassigned) [Example 343.0, (3R,4R)—N-(4-(2,6-Dimethoxyphenyl)-5-(furan-2-yl)-4H-1,2,4-triazol-3-yl)-3-(5-fluoropyrimidin-2-yl)-2-methylisoxazolidine-4-sulfonamide or (3S,4S)—N-(4-(2,6-dimethoxyphenyl)-5-(furan-2-yl)-4H-1,2,4-triazol-3-yl)-3-(5-fluoropyrimidin-2-yl)-2-methylisoxazolidine-4-sulfonamide]",6.70
